System: subjects with pulmonary hypertension
Assay: Systemic blood pressure (noninvasive) and heart rate monitoring during the study
Procedure: During the study right heart/pulmonary artery hemodynamics were measured as well as noninvasive systemic blood pressure monitoring and simultaneous RV echocardiography. Subjects were tested for the changes in pulmonary vascular resistance (PVR) measured by right heart catheterization and using thermodilution cardiac output measurement at time zero, at times 15, 30 and 45 minutes after completion of each nebulization dose.
Subjects were monitored closely for changes in blood pressure during the study. […] Subjects were continued to be monitored closely every 10 minutes for 2 hours.

[1] = Patient 1, nitrite 45 mg inhaled, 15 min
[2] = Patient 1, nitrite 45 mg inhaled, 30 min
[3] = Patient 1, nitrite 45 mg inhaled, 45 min
[4] = Patient 1, nitrite 45 mg inhaled, 60 min
[5] = Patient 1, nitrite 90 mg inhaled, 15 min
[6] = Patient 1, nitrite 90 mg inhaled, 30 min
[7] = Patient 1, nitrite 90 mg inhaled, 45 min
[8] = Patient 1, nitrite 90 mg inhaled, 60 min
[9] = Patient 2, nitrite 45 mg inhaled, 15 min
[10] = Patient 2, nitrite 45 mg inhaled, 30 min
[11] = Patient 2, nitrite 45 mg inhaled, 45 min
[12] = Patient 2, nitrite 45 mg inhaled, 60 min
[13] = Patient 2, nitrite 90 mg inhaled, 15 min
[14] = Patient 2, nitrite 90 mg inhaled, 30 min
[15] = Patient 2, nitrite 90 mg inhaled, 45 min
[16] = Patient 2, nitrite 90 mg inhaled, 60 min
[17] = Patient 3, nitrite 45 mg inhaled, 15 min
[18] = Patient 3, nitrite 45 mg inhaled, 30 min
[19] = Patient 3, nitrite 45 mg inhaled, 45 min
[20] = Patient 3, nitrite 45 mg inhaled, 60 min
[21] = Patient 3, nitrite 90 mg inhaled, 15 min
[22] = Patient 3, nitrite 90 mg inhaled, 30 min
[23] = Patient 3, nitrite 90 mg inhaled, 45 min
[24] = Patient 3, nitrite 90 mg inhaled, 60 min
[25] = Patient 4, nitrite 45 mg inhaled, 15 min
[26] = Patient 4, nitrite 45 mg inhaled, 30 min
[27] = Patient 4, nitrite 45 mg inhaled, 45 min
[28] = Patient 4, nitrite 45 mg inhaled, 60 min
[29] = Patient 4, nitrite 90 mg inhaled, 15 min
[30] = Patient 4, nitrite 90 mg inhaled, 30 min
[31] = Patient 4, nitrite 90 mg inhaled, 45 min
[32] = Patient 4, nitrite 90 mg inhaled, 60 min
[33] = Patient 5, nitrite 45 mg inhaled, 15 min
[34] = Patient 5, nitrite 45 mg inhaled, 30 min
[35] = Patient 5, nitrite 45 mg inhaled, 45 min
[36] = Patient 5, nitrite 45 mg inhaled, 60 min
[37] = Patient 5, nitrite 90 mg inhaled, 15 min
[38] = Patient 5, nitrite 90 mg inhaled, 30 min
[39] = Patient 5, nitrite 90 mg inhaled, 45 min
[40] = Patient 5, nitrite 90 mg inhaled, 60 min
[41] = at the doses tested (45 mg and 90 mg inhaled)

O=NO [nitrite, sodium nitrite]
HR [1]: 81 | Systemic DBP [1]: 71 | Systemic SBP [1]: 109 | Systemic mBP [1]: 83.68 | HR [2]: 83 | Systemic DBP [2]: 78 | Systemic SBP [2]: 108 | Systemic mBP [2]: 88.01 | HR [3]: 82 | Systemic DBP [3]: 72 | Systemic SBP [3]: 109 | Systemic mBP [3]: 84.34 | HR [4]: 88 | Systemic DBP [4]: 78 | Systemic SBP [4]: 108 | Systemic mBP [4]: 88.01 | HR [5]: 93 | Systemic DBP [5]: 67 | Systemic SBP [5]: 97 | Systemic mBP [5]: 77.01 | HR [6]: 93 | Systemic DBP [6]: 66 | Systemic SBP [6]: 102 | Systemic mBP [6]: 78.01 | HR [7]: 94 | Systemic DBP [7]: 62 | Systemic SBP [7]: 102 | Systemic mBP [7]: 75.34 | HR [8]: 92 | Systemic DBP [8]: 67 | Systemic SBP [8]: 105 | Systemic mBP [8]: 79.68 | HR [9]: 74 | Systemic DBP [9]: 82 | Systemic SBP [9]: 136 | Systemic mBP [9]: 100.01 | HR [10]: 73 | Systemic DBP [10]: 75 | Systemic SBP [10]: 137 | Systemic mBP [10]: 95.68 | HR [11]: 75 | Systemic DBP [11]: 75 | Systemic SBP [11]: 137 | Systemic mBP [11]: 95.68 | HR [12]: 77 | Systemic DBP [12]: 68 | Systemic SBP [12]: 132 | Systemic mBP [12]: 89.34 | HR [13]: 74 | Systemic DBP [13]: 76 | Systemic SBP [13]: 142 | Systemic mBP [13]: 98.01 | HR [14]: 74 | Systemic DBP [14]: 77 | Systemic SBP [14]: 132 | Systemic mBP [14]: 95.34 | HR [15]: 76 | Systemic DBP [15]: 81 | Systemic SBP [15]: 141 | Systemic mBP [15]: 101.01 | HR [16]: 77 | Systemic DBP [16]: 78 | Systemic SBP [16]: 143 | Systemic mBP [16]: 99.68 | HR [17]: 63 | Systemic DBP [17]: 55 | Systemic SBP [17]: 96 | Systemic mBP [17]: 68.67 | HR [18]: 51 | Systemic DBP [18]: 56 | Systemic SBP [18]: 95 | Systemic mBP [18]: 69.01 | HR [19]: 67 | Systemic DBP [19]: 59 | Systemic SBP [19]: 92 | Systemic mBP [19]: 70.01 | HR [20]: 63 | Systemic DBP [20]: 52 | Systemic SBP [20]: 106 | Systemic mBP [20]: 70.01 | HR [21]: 68 | Systemic DBP [21]: 54 | Systemic SBP [21]: 100 | Systemic mBP [21]: 69.34 | HR [22]: 71 | Systemic DBP [22]: 58 | Systemic SBP [22]: 102 | Systemic mBP [22]: 72.68 | HR [23]: 70 | Systemic DBP [23]: 54 | Systemic SBP [23]: 100 | Systemic mBP [23]: 69.34 | HR [24]: 72 | Systemic DBP [24]: 59 | Systemic SBP [24]: 103 | Systemic mBP [24]: 73.68 | HR [25]: 72 | Systemic DBP [25]: 73 | Systemic SBP [25]: 137 | Systemic mBP [25]: 94.34 | HR [26]: 69 | Systemic DBP [26]: 77 | Systemic SBP [26]: 134 | Systemic mBP [26]: 96.01 | HR [27]: 72 | Systemic DBP [27]: 71 | Systemic SBP [27]: 134 | Systemic mBP [27]: 92.01 | HR [28]: 71 | Systemic DBP [28]: 71 | Systemic SBP [28]: 131 | Systemic mBP [28]: 91.01 | HR [29]: 61 | Systemic DBP [29]: 64 | Systemic SBP [29]: 120 | Systemic mBP [29]: 82.68 | HR [30]: 70 | Systemic DBP [30]: 68 | Systemic SBP [30]: 126 | Systemic mBP [30]: 87.34 | HR [31]: 63 | Systemic DBP [31]: 63 | Systemic SBP [31]: 121 | Systemic mBP [31]: 82.34 | HR [32]: 63 | Systemic DBP [32]: 66 | Systemic SBP [32]: 129 | Systemic mBP [32]: 87.01 | HR [33]: 58 | Systemic DBP [33]: 49 | Systemic SBP [33]: 91 | Systemic mBP [33]: 63.01 | HR [34]: 53 | Systemic DBP [34]: 52 | Systemic SBP [34]: 95 | Systemic mBP [34]: 66.34 | HR [35]: 65 | Systemic DBP [35]: 52 | Systemic SBP [35]: 98 | Systemic mBP [35]: 67.34 | HR [36]: 62 | Systemic DBP [36]: 45 | Systemic SBP [36]: 95 | Systemic mBP [36]: 61.67 | HR [37]: 59 | Systemic DBP [37]: 53 | Systemic SBP [37]: 100 | Systemic mBP [37]: 68.68 | HR [38]: 61 | Systemic DBP [38]: 49 | Systemic SBP [38]: 102 | Systemic mBP [38]: 66.68 | HR [39]: 65 | Systemic DBP [39]: 47 | Systemic SBP [39]: 94 | Systemic mBP [39]: 62.67 | HR [40]: 58 | Systemic DBP [40]: 54 | Systemic SBP [40]: 107 | Systemic mBP [40]: 71.68 | HR (Patient 6, nitrite 45, 15 min): 95 | Systemic DBP (Patient 6, nitrite 45, 15 min): 58 | Systemic SBP (Patient 6, nitrite 45, 15 min): 110 | Systemic mBP (Patient 6, nitrite 45, 15 min): 75.3426 | HR (Patient 6, nitrite 45, 30 min): 99 | Systemic DBP (Patient 6, nitrite 45, 30 min): 65 | Systemic SBP (Patient 6, nitrite 45, 30 min): 127 | Systemic mBP (Patient 6, nitrite 45, 30 min): 85.6773 | HR (Patient 6, nitrite 45, 45 min): 96 | Systemic DBP (Patient 6, nitrite 45, 45 min): 66 | Systemic SBP (Patient 6, nitrite 45, 45 min): 126 | Systemic mBP (Patient 6, nitrite 45, 45 min): 86.0106 | HR (Patient 6, nitrite 45, 60 min): 97 | Systemic DBP (Patient 6, nitrite 45, 60 min): 65 | Systemic SBP (Patient 6, nitrite 45, 60 min): 128 | Systemic mBP (Patient 6, nitrite 45, 60 min): 86.0107 | HR (Patient 6, nitrite 90, 15 min): 93 | Systemic DBP (Patient 6, nitrite 90, 15 min): 59 | Systemic SBP (Patient 6, nitrite 90, 15 min): 112 | Systemic mBP (Patient 6, nitrite 90, 15 min): 76.6761 | HR (Patient 6, nitrite 90, 30 min): 95 | Systemic DBP (Patient 6, nitrite 90, 30 min): 66 | Systemic SBP (Patient 6, nitrite 90, 30 min): 110 | Systemic mBP (Patient 6, nitrite 90, 30 min): 80.6762 | HR (Patient 6, nitrite 90, 45 min): 90 | Systemic DBP (Patient 6, nitrite 90, 45 min): 60 | Systemic SBP (Patient 6, nitrite 90, 45 min): 114 | Systemic mBP (Patient 6, nitrite 90, 45 min): 78.0096 | HR (Patient 6, nitrite 90, 60 min): 91 | Systemic DBP (Patient 6, nitrite 90, 60 min): 58 | Systemic SBP (Patient 6, nitrite 90, 60 min): 111 | Systemic mBP (Patient 6, nitrite 90, 60 min): 75.676 | heart rate [41]: does not significantly affect | systemic blood pressure [41]: does not significantly affect

— patent US11986493B2 (University of Pittsburgh—Of the Commonwealth System of …, priority 2013, dated 2024)
